Target: Ribonucleotide reductase (Homo sapiens, UniProt P23921+Q7LG56)
Experiment: Human RNR Inhibition Effect: The inhibitory activity against the ribonucleotide reduction reaction (hereinafter referred to as RNR reaction) of the test compound was determined by measuring the formation of deoxycytidine diphosphate (hereinafter referred to as dCDP) from cytidine diphosphate (hereinafter referred to as CDP) by the following method.Human M1 subunit and human M2 subunit (mutant …

Sequence of Ribonucleotide reductase (P23921 whole entry, looked up): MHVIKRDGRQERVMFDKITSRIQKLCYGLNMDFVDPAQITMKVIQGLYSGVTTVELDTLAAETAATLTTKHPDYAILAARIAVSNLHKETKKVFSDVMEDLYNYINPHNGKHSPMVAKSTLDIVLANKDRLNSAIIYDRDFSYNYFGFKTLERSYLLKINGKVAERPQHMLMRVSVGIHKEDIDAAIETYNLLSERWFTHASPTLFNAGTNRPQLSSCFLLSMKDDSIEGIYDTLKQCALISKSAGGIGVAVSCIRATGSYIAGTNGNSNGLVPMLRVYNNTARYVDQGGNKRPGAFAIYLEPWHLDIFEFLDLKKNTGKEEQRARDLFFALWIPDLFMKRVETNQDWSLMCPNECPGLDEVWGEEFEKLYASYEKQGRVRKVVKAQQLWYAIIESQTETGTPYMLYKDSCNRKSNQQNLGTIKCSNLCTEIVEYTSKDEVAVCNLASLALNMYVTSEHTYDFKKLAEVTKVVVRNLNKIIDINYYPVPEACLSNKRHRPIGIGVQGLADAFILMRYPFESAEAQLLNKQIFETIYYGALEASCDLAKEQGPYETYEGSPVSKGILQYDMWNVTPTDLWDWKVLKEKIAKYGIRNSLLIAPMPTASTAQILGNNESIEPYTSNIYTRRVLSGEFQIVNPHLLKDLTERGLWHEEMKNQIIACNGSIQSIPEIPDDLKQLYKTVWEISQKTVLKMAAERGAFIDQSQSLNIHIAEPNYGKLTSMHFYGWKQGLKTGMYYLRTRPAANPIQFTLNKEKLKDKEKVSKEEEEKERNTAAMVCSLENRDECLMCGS
Sequence of Ribonucleotide reductase (Q7LG56 whole entry, looked up): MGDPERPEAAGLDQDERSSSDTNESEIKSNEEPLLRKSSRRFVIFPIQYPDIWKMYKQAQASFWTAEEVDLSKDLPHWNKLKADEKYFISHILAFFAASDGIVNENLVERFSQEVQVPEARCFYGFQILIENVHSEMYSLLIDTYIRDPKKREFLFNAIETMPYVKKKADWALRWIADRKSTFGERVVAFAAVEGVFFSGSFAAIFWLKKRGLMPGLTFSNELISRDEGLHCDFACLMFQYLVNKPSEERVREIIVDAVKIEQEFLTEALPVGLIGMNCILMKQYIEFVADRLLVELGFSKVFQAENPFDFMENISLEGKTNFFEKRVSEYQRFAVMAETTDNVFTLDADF

Structure (SMILES) | IC50
Cc1c(Cl)ccc(F)c1[C@@H](C)[C@H](NS(=O)(=O)c1ccc(Br)cc1C(N)=O)c1n[nH]c(=O)o1 | 150 nM
Cc1ccc(F)c([C@@H](C)[C@H](NS(=O)(=O)c2ccc(Cl)cc2C(N)=O)c2n[nH]c(=O)o2)c1Cl | 500 nM
Cc1ccc(F)c([C@@H](C)[C@H](NS(=O)(=O)c2cc(C(=O)N3CCOCC3)ccc2C(N)=O)c2n[nH]c(=O)o2)c1C | 110 nM
COc1cc(Cl)ccc1S(=O)(=O)N[C@H](c1n[nH]c(=O)o1)C(C)c1c(F)c(F)cc(C)c1Br (stereo not given in full) | 420 nM
COc1cc(Cl)ccc1S(=O)(=O)N[C@H](c1n[nH]c(=O)o1)[C@H](C)c1cccc2cccc(C)c12 | 240 nM
Cc1cc(F)cc([C@@H](C)[C@H](NS(=O)(=O)c2ccc(Cl)cc2C(N)=O)c2n[nH]c(=O)o2)c1C | 450 nM
Cc1cccc([C@@H](C)[C@H](NS(=O)(=O)c2ccc(Br)cc2C(N)=O)c2n[nH]c(=O)o2)c1C | 380 nM
Cc1c(Cl)ccc(F)c1[C@@H](C)[C@H](NS(=O)(=O)c1ccc(Cl)cc1C(N)=O)c1n[nH]c(=O)o1 | 250 nM
C[C@H](c1cccc2ccccc12)[C@H](NS(=O)(=O)c1ccc(Cl)cc1Cl)c1n[nH]c(=O)o1 | 840 nM
COc1cc(Cl)ccc1S(=O)(=O)N[C@H](c1n[nH]c(=O)o1)[C@H](C)c1cccc(C)c1C(C)C | 840 nM
C[C@H](c1c(F)ccc2ccccc12)[C@H](NS(=O)(=O)c1ccc(Br)cc1C(N)=O)c1n[nH]c(=O)o1 | 100 nM
CCc1ccc(F)c([C@@H](C)[C@H](NS(=O)(=O)c2ccc(Br)cc2C(N)=O)c2n[nH]c(=O)o2)c1C | 100 nM
C[C@H](c1c(F)ccc2ccccc12)[C@H](NS(=O)(=O)c1ccc(Cl)cc1C(N)=O)c1n[nH]c(=O)o1 | 110 nM
Cc1ccc(F)c([C@@H](C)[C@H](NS(=O)(=O)c2cc(C(=O)N(C)C)ccc2C(N)=O)c2n[nH]c(=O)o2)c1C | 140 nM
Cc1c(Br)ccc(F)c1[C@@H](C)[C@H](NS(=O)(=O)c1ccc(C(F)(F)F)cc1C(N)=O)c1n[nH]c(=O)o1 | 200 nM
COc1cc(Cl)ccc1S(=O)(=O)N[C@H](c1n[nH]c(=O)o1)[C@H](C)c1c(F)ccc2ccccc12 | 200 nM
Cc1c(F)ccc(F)c1[C@@H](C)[C@H](NS(=O)(=O)c1ccc(Cl)cc1C(N)=O)c1n[nH]c(=O)o1 | 500 nM
Cc1c(Br)ccc(F)c1[C@@H](C)[C@H](NS(=O)(=O)c1ccc(Cl)cc1C(N)=O)c1n[nH]c(=O)o1 | 150 nM
C[C@H](c1cccc2c1CCCC2)[C@H](NS(=O)(=O)c1ccc(Cl)cn1)c1n[nH]c(=O)o1 | 770 nM
CCc1ccc(F)c([C@@H](C)[C@H](NS(=O)(=O)c2ccc(Cl)cc2C(N)=O)c2n[nH]c(=O)o2)c1C | 180 nM

Structure (SMILES) | IC50
Cc1c(C(F)(F)F)ccc(F)c1[C@@H](C)[C@H](NS(=O)(=O)c1ccc(Cl)cc1C(N)=O)c1n[nH]c(=O)o1 | 550 nM
Cc1ccc(F)c([C@@H](C)[C@H](NS(=O)(=O)c2ccc(Cl)c(C(=O)N3C4CCC3COC4)n2)c2n[nH]c(=O)o2)c1C | 70 nM
Cc1c(C2CC2)ccc(F)c1[C@@H](C)[C@H](NS(=O)(=O)c1ccc(Cl)cc1C(N)=O)c1n[nH]c(=O)o1 | 160 nM
COc1cc(Cl)ccc1S(=O)(=O)N[C@H](c1n[nH]c(=O)o1)[C@H](C)c1c(F)ccc(C#N)c1C | 840 nM
Cc1cccc([C@@H](C)[C@H](NS(=O)(=O)c2ccc(Cl)cc2C(N)=O)c2n[nH]c(=O)o2)c1C | 300 nM
CC1CCc2cccc(C(C)[C@H](NS(=O)(=O)c3ccc(Br)cn3)c3n[nH]c(=O)o3)c21 (stereo not given in full) | 600 nM
C[C@H](c1cccc2c1CCC2)[C@H](NS(=O)(=O)c1ccc(Br)cc1F)c1n[nH]c(=O)o1 | 990 nM
Cc1c(Br)ccc(F)c1[C@@H](C)[C@H](NS(=O)(=O)c1ccc(Br)cc1C(N)=O)c1n[nH]c(=O)o1 | 130 nM
Cc1ccc(F)c([C@@H](C)[C@H](NS(=O)(=O)c2cc(C(=O)N(C)C)c(Cl)cc2C(N)=O)c2n[nH]c(=O)o2)c1C | 40 nM
Cc1cccc2cccc([C@@H](C)[C@H](NS(=O)(=O)c3ccc(Cl)c4c3OCCC4(F)F)c3n[nH]c(=O)o3)c12 | 280 nM
Cc1ccc(S(=O)(=O)N[C@H](c2n[nH]c(=O)o2)[C@H](C)c2c(F)ccc3ccccc23)c(C(N)=O)c1 | 170 nM
COc1cc(Cl)cnc1S(=O)(=O)N[C@H](c1n[nH]c(=O)o1)[C@H](C)c1c(F)ccc(C)c1C | 150 nM
CCc1cccc([C@@H](C)[C@H](NS(=O)(=O)c2ccc(Cl)cc2OC)c2n[nH]c(=O)o2)c1C | 400 nM
C[C@H](c1cc(F)cc2ccccc12)[C@H](NS(=O)(=O)c1ccc(Cl)cc1C(N)=O)c1n[nH]c(=O)o1 | 600 nM
COc1cc(Cl)ccc1S(=O)(=O)N[C@H](c1n[nH]c(=O)o1)[C@H](C)c1cccc2c1CC(C)C2 (stereo not given in full) | 700 nM
Cc1cc(F)c(F)c([C@@H](C)[C@H](NS(=O)(=O)c2ccc(Cl)cc2C(N)=O)c2n[nH]c(=O)o2)c1C | 140 nM
C[C@H](c1cccc2c1-c1ccccc1C2)[C@H](NS(=O)(=O)c1ccc(Br)cn1)c1n[nH]c(=O)o1 | 850 nM
Cc1ccc(F)c([C@@H](C)[C@H](NS(=O)(=O)c2ccc(Cl)cc2C(N)=O)c2n[nH]c(=O)o2)c1 | 240 nM
C[C@H](c1cccc2c1Cc1ccccc1-2)[C@H](NS(=O)(=O)c1ccc(Br)cn1)c1n[nH]c(=O)o1 | 800 nM

The remaining lines, values ahead:

IC50 | Structure (SMILES)
110 nM | CCN1CCOc2c(S(=O)(=O)N[C@H](c3n[nH]c(=O)o3)[C@H](C)c3c(F)ccc(C)c3C)ccc(Cl)c21
60 nM | Cc1ccc(F)c([C@@H](C)[C@H](NS(=O)(=O)c2ccc(Br)cc2C(N)=O)c2n[nH]c(=O)o2)c1C
60 nM | Cc1ccc(F)c([C@@H](C)[C@H](NS(=O)(=O)c2ccc(Cl)c(C(=O)N3CCCC3)n2)c2n[nH]c(=O)o2)c1C
190 nM | Cc1ccc(F)c([C@@H](C)[C@H](NS(=O)(=O)c2cc(C(=O)O)c(Cl)cc2C(N)=O)c2n[nH]c(=O)o2)c1C
360 nM | Cc1ccc(F)c([C@@H](C)[C@H](NS(=O)(=O)c2ccc(Cl)cc2C#N)c2n[nH]c(=O)o2)c1C
60 nM | Cc1ccc(F)c([C@@H](C)[C@H](NS(=O)(=O)c2ccc(Cl)c(C(=O)N3CCOCC3)n2)c2n[nH]c(=O)o2)c1C
200 nM | Cc1ccc(F)c([C@@H](C)[C@H](NS(=O)(=O)c2ccc(Br)cc2C#N)c2n[nH]c(=O)o2)c1C
230 nM | Cc1ccc(F)c([C@@H](C)[C@H](NS(=O)(=O)c2ccc(Cl)cc2-c2ccno2)c2n[nH]c(=O)o2)c1C
640 nM | Cc1ccc(F)c([C@@H](C)[C@H](NS(=O)(=O)c2ccccc2C#N)c2n[nH]c(=O)o2)c1C
60 nM | COC(=O)c1nc(S(=O)(=O)N[C@H](c2n[nH]c(=O)o2)[C@H](C)c2c(F)ccc(C)c2C)ccc1Cl
130 nM | Cc1ccc(F)c([C@@H](C)[C@H](NS(=O)(=O)c2ccc(Cl)c3c2OCC(=O)N3CC(F)F)c2n[nH]c(=O)o2)c1C
130 nM | Cc1ccc(F)c([C@@H](C)[C@H](NS(=O)(=O)c2cnc(Cl)cc2C(N)=O)c2n[nH]c(=O)o2)c1C
150 nM | Cc1ccc(F)c([C@@H](C)[C@H](NS(=O)(=O)c2ccc(Cl)c3c2OCCC3=O)c2n[nH]c(=O)o2)c1C
160 nM | COc1cc(Cl)ccc1S(=O)(=O)N[C@H](c1n[nH]c(=O)o1)[C@H](C)c1c(C)c(C)cc(F)c1F
100 nM | Cc1ccc(F)c([C@@H](C)[C@H](NS(=O)(=O)c2ccc(C(F)(F)F)cc2C(N)=O)c2n[nH]c(=O)o2)c1C
960 nM | Cc1ccc(F)c([C@@H](C)[C@H](NS(=O)(=O)c2c(F)cccc2F)c2n[nH]c(=O)o2)c1C
270 nM | Cc1ccc(F)c([C@@H](C)[C@H](NS(=O)(=O)c2c(F)cc(Cl)cc2F)c2n[nH]c(=O)o2)c1C
290 nM | Cc1ccc(F)c([C@@H](C)[C@H](NS(=O)(=O)c2cccc3c2OCCN3C(=O)C2CC2)c2n[nH]c(=O)o2)c1C

IC50 | Structure (SMILES)
240 nM | Cc1ccc(F)c([C@@H](C)[C@H](NS(=O)(=O)c2ccc(Cl)c3c2C(=O)CCC3)c2n[nH]c(=O)o2)c1C
30 nM | Cc1ccc(F)c([C@@H](C)[C@H](NS(=O)(=O)c2ccc(Cl)c(C(=O)N3CC4CCC(C3)O4)n2)c2n[nH]c(=O)o2)c1C
100 nM | Cc1ccc(F)c([C@@H](C)[C@H](NS(=O)(=O)c2ccc(Cl)c3c2OCC(=O)N3C)c2n[nH]c(=O)o2)c1C
140 nM | Cc1ccc(S(=O)(=O)N[C@H](c2n[nH]c(=O)o2)[C@H](C)c2c(F)ccc(C)c2C)c(C(N)=O)c1
160 nM | Cc1ccc(F)c([C@@H](C)[C@H](NS(=O)(=O)c2ccc(Cl)c(C#N)n2)c2n[nH]c(=O)o2)c1C
130 nM | Cc1ccc(F)c([C@@H](C)[C@H](NS(=O)(=O)c2ccc(C3CC3)cc2C(N)=O)c2n[nH]c(=O)o2)c1C
130 nM | CCc1ccc(S(=O)(=O)N[C@H](c2n[nH]c(=O)o2)[C@H](C)c2c(F)ccc(C)c2C)c(C(N)=O)c1
240 nM | Cc1ccc(F)c([C@@H](C)[C@H](NS(=O)(=O)c2cccc3c2OC(C)(C)CC3=O)c2n[nH]c(=O)o2)c1C
300 nM | CC(=O)OC1(C)CCOc2c(S(=O)(=O)N[C@H](c3n[nH]c(=O)o3)[C@H](C)c3c(F)ccc(Cl)c3C)ccc(Cl)c21 (stereo not given in full)
190 nM | Cc1ccc(F)c([C@@H](C)[C@H](NS(=O)(=O)c2ccc(Cl)nc2C(N)=O)c2n[nH]c(=O)o2)c1C
140 nM | COc1cc(Cl)ccc1S(=O)(=O)N[C@H](c1n[nH]c(=O)o1)[C@H](C)c1c(F)ccc(C)c1C
140 nM | Cc1ccc(F)c([C@@H](C)[C@H](NS(=O)(=O)c2ccc(Cl)c3c2OCCN3CC(F)F)c2n[nH]c(=O)o2)c1C
260 nM | Cc1ccc(F)c([C@@H](C)[C@H](NS(=O)(=O)c2ccccc2C(N)=O)c2n[nH]c(=O)o2)c1C
100 nM | Cc1ccc(F)c([C@@H](C)[C@H](NS(=O)(=O)c2ccc(Cl)c(C(N)=O)n2)c2n[nH]c(=O)o2)c1C
180 nM | Cc1ccc(F)c([C@@H](C)[C@H](NS(=O)(=O)c2ccc(Cl)c(C(=O)N3CCC4(CCC4)C3)n2)c2n[nH]c(=O)o2)c1C
430 nM | COc1c(S(=O)(=O)N[C@H](c2n[nH]c(=O)o2)[C@H](C)c2c(F)ccc(C)c2C)ccc(Cl)c1C(C)(C)OC(C)=O
270 nM | CC(=O)OC1(C(F)(F)F)CCOc2c1cccc2S(=O)(=O)N[C@H](c1n[nH]c(=O)o1)[C@H](C)c1c(F)ccc(C)c1C (stereo not given in full)
410 nM | COC(=O)c1cc(Cl)ccc1S(=O)(=O)N[C@H](c1n[nH]c(=O)o1)[C@H](C)c1c(F)ccc(C)c1C
